Data on 31 compounds can be found in patent publication US10118930B2, “Piperidinylpyrazolopyrimidinones and their use” (BAYER PHARMA AKTIENGESELLSCHAFT, priority 2015, dated 2018).

The IC50 is the concentration at which inhibition is half-maximal.

Where a name gives a salt, the structure may show the parent alone.

One assay concerns clot lysis (fibrinolysis) in diluted human citrated plasma, tPA-induced. Description: Plasma-based clot lysis assay (5%). Format: biochemical. The conditions noted are these: human citrated platelet-poor plasma 5%, fibrinogen 3 μM, CaCl2 10 mM, tPA 0.2 nM, 37° C., OD at 405 nm. On the procedure: B-2. Plasma-based Clot Lysis Assay (5%)
The clot-lysis test system configures the kinetics of clot formation and degradation in vitro and allows quantifying modulation of the process by selected test compounds.
The test compounds were dissolved in 1% acetic acid and further complemented with an equal volume of DMSO. The resulting stock solutions were serially diluted in 0.5% acetic acid/50% DMSO. 1 μL aliquots of these solutions were placed into 384 well microplates (Greiner, black, transparent bottom), followed by 30 μL of diluted human citrated plasma (platelet-poor, final concentration: 5%; supplemented with fibrinogen, final concentration: 3 μM; dilution buffer: 20 mM HEPES, 150 mM NaCl, 0.01% Brij (pH 7)). The reactions were started by addition of 20 μL of CaCl2 (final concentration: 10 mM), and tPA (tissue plasminogen activator, final concentration: 0.2 nM) in dilution buffer, followed by an additional volume of 20 μL dilution buffer for improved mixing. The reactions were incubated at 37° C. […] IC50 values were determined by comparing the resulting time courses with the time course of a blank control reaction.
`O=c1cc(C2CCNCC2)n2ncc(-c3nc(-c4cccnc4Cl)no3)c2[nH]1` [Example 148, 3-[3-(2-Chloropyridin-3-yl)-1,2,4-oxadiazol-5-yl]-7-(piperidin-4-yl)pyrazolo[1,5-a]pyrimidin-5(4H)-one hydrochloride] gave a concentration for half-maximal inhibition (IC50) of 43 nM.
As for `Cc1nn2c(C3CCNCC3)cc(=O)[nH]c2c1-c1nc(-c2ccccc2OC(F)(F)F)no1` [Example 347, 2-methyl-7-(piperidin-4-yl)-3-{3-[2-(trifluoromethoxy)phenyl]-1,2,4-oxadiazol-5-yl}pyrazolo[1,5-a]pyrimidin-5(4H)-one hydrochloride], the IC50 is 28 nM.
Still for that read-out and setting: the result for `COCC1CCCN(C(=O)c2c(C)nn3c(C4CCNCC4)cc(=O)[nH]c23)C1` (stereo not shown) [Example 402, 3-{[3-(methoxymethyl)piperidin-1-yl]carbonyl}-2-methyl-7-(piperidin-4-yl) pyrazolo[1,5-a] pyrimidin-5(4H)-one hydrochloride] reads 40 nM; that for `O=C(NCC1CCCC1)c1cnn2c(C3CCNCC3)cc(=O)[nH]c12` [Example 77], 62 nM; that for `O=c1cc(C2CCNCC2)n2ncc(-c3noc(-c4ccc(C(F)(F)F)cc4Cl)n3)c2[nH]1` [Example 232, 3-{5-[2-chloro-4-(trifluoromethyl)phenyl]-1,2,4-oxadiazol-3-yl}-7-(piperidin-4-yl)pyrazolo[1,5-a]pyrimidin-5(4H)-one hydrochloride], 71 nM.
Same read-out and setting: the result for `COc1cccc(-c2cnn3c(C4CCNCC4)cc(=O)[nH]c23)c1` [Example 60, 3-(3-Methoxyphenyl)-7-(piperidin-4-yl)pyrazolo[1,5-a]pyrimidin-5(4H)-one hydrochloride] reads 13 nM; that for `COCCCNC(=O)c1cnn2c(C3CCNCC3)cc(=O)[nH]c12` [Example 88, N-(3-methoxypropyl)-5-oxo-7-(piperidin-4-yl)-4,5-dihydropyrazolo[1,5-a]pyrimidine-3-carboxamide hydrochloride], 49 nM.
As to `O=C(NCCN1CCOC1=O)c1cnn2c(C3CCNCC3)cc(=O)[nH]c12` [Example 92, 5-oxo-N-[2-(2-oxo-1,3-oxazolidin-3-yl)ethyl]-7-(piperidin-4-yl)-4,5-dihydropyrazolo[1,5-a]pyrimidine-3-carboxamide hydrochloride], the IC50 worked out at 33 nM.
Same read-out and setting: the result for `CCOC(=O)c1c(SC)nn2c(C3CCNCC3)cc(=O)[nH]c12` [Example 455, Ethyl 2-(methylsulfanyl)-5-oxo-7-(piperidin-4-yl)-4,5-dihydropyrazolo[1,5-a]pyrimidine-3-carboxylate hydrochloride] reads 36 nM; that for `COc1ccc(-c2cnn3c(C4CCNCC4)cc(=O)[nH]c23)cc1OC` [Example 54, 3-(3,4-Dimethoxyphenyl)-7-(piperidin-4-yl)pyrazolo[1,5-a]pyrimidin-5(4H)-one hydrochloride], 18 nM; that for `O=c1cc(C2CCNCC2)n2ncc(CN3CCCC3)c2[nH]1` [Example 343, 7-(piperidin-4-yl)-3-(pyrrolidin-1-ylmethyl)pyrazolo[1,5-a]pyrimidin-5(4H)-one hydrochloride], 130 nM.
As to `CCc1csc(-c2cnn3c(C4CCNCC4)cc(=O)[nH]c23)n1` [Example 308, 3-(4-ethyl-1,3-thiazol-2-yl)-7-(piperidin-4-yl)pyrazolo[1,5-a]pyrimidin-5(4H)-one hydrochloride], half-maximal inhibition (IC50) required 11 nM.
Compound `O=c1cc(C2CCNCC2)n2ncc(-c3nnc(C4CCC4)o3)c2[nH]1` [Example 294, 3-(5-cyclobutyl-1,3,4-oxadiazol-2-yl)-7-(piperidin-4-yl)pyrazolo[1,5-a]pyrimidin-5 (4H)-one hydrochloride] showed an IC50 of 37 nM.
`Cc1ccccc1-c1noc(-c2cnn3c(C4CCNCC4)cc(=O)[nH]c23)n1` [Example 119, 3-[3-(2-Methylphenyl)-1,2,4-oxadiazol-5-yl]-7-(piperidin-4-yl)pyrazolo[1,5-a]pyrimidin-5 (4H)-one hydrochloride] displayed an IC50 of 79 nM.
Same read-out and setting: to `O=c1cc(C2CCNCC2)n2ncc(-c3nc(-c4cccc(Cl)c4Cl)no3)c2[nH]1` [Example 143, 3-[3-(2,3-Dichlorophenyl)-1,2,4-oxadiazol-5-yl]-7-(piperidin-4-yl)pyrazolo[1,5-a]pyrimidin-5 (4H)-one hydrochloride] belongs 41 nM.
Consider `NCc1noc(-c2cnn3c(C4CCNCC4)cc(=O)[nH]c23)n1` [Example 212, 3-[3-(aminomethyl)-1,2,4-oxadiazol-5-yl]-7-(piperidin-4-yl)pyrazolo[1,5-a]pyrimidin-5 (4H)-one hydrochloride], for which the IC50 is 58 nM.
In turn, `Cc1nn2c(C3CCNCC3)cc(=O)[nH]c2c1C(=O)N1Cc2ccccc2C1` [Example 410, 3-(1,3-dihydro-2H-isoindol-2-ylcarbonyl)-2-methyl-7-(piperidin-4-yl) pyrazolo[1,5-a] pyrimidin-5(4H)-one hydrochloride] displayed an IC50 of 45 nM.
Regarding `Cc1ccc(-c2nc(-c3cnn4c(C5CCNCC5)cc(=O)[nH]c34)no2)cc1` [Example 220, 3-[5-(4-methylphenyl)-1,2,4-oxadiazol-3-yl]-7-(piperidin-4-yl)pyrazolo[1,5-a]pyrimidin-5 (4H)-one hydrochloride], the half-inhibitory concentration (IC50) was 15 nM.
`CC1(c2nc(-c3cnn4c(C5CCNCC5)cc(=O)[nH]c34)no2)CCCC1` (racemic) [Example 386, Rac-3-[5-(1-Methylcyclopentyl)-1,2,4-oxadiazol-3-yl]-7-(piperidin-4-yl)pyrazolo[1,5-a]pyrimidin-5(4H)-one hydrochloride] yielded a half-maximal inhibitory concentration (IC50) of 28 nM.
With `O=c1cc(C2CCNCC2)n2ncc(-c3cccc(-c4ccc(C(F)(F)F)cc4)c3)c2[nH]1` [Example 162, 7-(piperidin-4-yl)-3-[4′-(trifluoromethyl)biphenyl-3-yl]pyrazolo[1,5-a]pyrimidin-5(4H)-one hydrochloride], the IC50 is 140 nM.
Turning to `COC[C@@H]1CCCN1C(=O)c1c(C)nn2c(C3CCNCC3)cc(=O)[nH]c12` [Example 398, 3-{[(2S)-2-(methoxymethyl)pyrrolidin-1-yl]carbonyl}-2-methyl-7-(piperidin-4-yl) pyrazolo[1,5-a] pyrimidin-5(4H)-one hydrochloride], half-maximal inhibition (IC50) required 34 nM.
As for `Cc1nn2c(C3CCNCC3)cc(=O)[nH]c2c1-c1nc(-c2ccccc2F)no1` [Example 438, 3-[3-(2-fluorophenyl)-1,2,4-oxadiazol-5-yl]-2-methyl-7-(piperidin-4-yl)pyrazolo[1,5-a]pyrimidin-5(4H)-one hydrochloride], the IC50 stood at 12 nM.
On the same count and under the same terms, to `Cc1c(Cl)cccc1-c1noc(-c2cnn3c(C4CCNCC4)cc(=O)[nH]c23)n1` [Example 140, 3-[3-(3-Chloro-2-methylphenyl)-1,2,4-oxadiazol-5-yl]-7-(piperidin-4-yl)pyrazolo[1,5-a]pyrimidin-5(4H)-one hydrochloride] belongs 130 nM.
For the compound `Nc1cccc(-c2noc(-c3cnn4c(C5CCNCC5)cc(=O)[nH]c34)n2)c1` [Example 208, 3-[3-(3-aminophenyl)-1,2,4-oxadiazol-5-yl]-7-(piperidin-4-yl)pyrazolo[1,5-a]pyrimidin-5 (4H)-one hydrochloride], the IC50 is 55 nM.
`Cc1noc(-c2cnn3c(C4CCNCC4)cc(=O)[nH]c23)n1` [Example 32, 3-(3-Methyl-1,2,4-oxadiazol-5-yl)-7-(piperidin-4-yl)pyrazolo[1,5-a]pyrimidin-5(4H)-one hydrochloride] displayed an IC50 of 15 nM.
`O=c1cc(C2CCNCC2)n2ncc(-c3nc(-c4ccccc4F)no3)c2[nH]1` [Example 159, 3-[3-(2-fluorophenyl)-1,2,4-oxadiazol-5-yl]-7-(piperidin-4-yl)pyrazolo[1,5-a]pyrimidin-5(4H)-one hydrochloride] displayed an IC50 of 23 nM.
`O=C(Nc1cccc2ccccc12)c1cnn2c(C3CCNCC3)cc(=O)[nH]c12` [Example 75, N-(naphthalen-1-yl)-5-oxo-7-(piperidin-4-yl)-4,5-dihydropyrazolo[1,5-a]pyrimidine-3-carboxamide] came in with an IC50 of 40 nM.
`O=c1cc(C2CCNCC2)n2ncc(-c3cccc(Cl)c3)c2[nH]1` [Example 48, 3-(3-Chlorophenyl)-7-(piperidin-4-yl)pyrazolo[1,5-a]pyrimidin-5(4H)-one hydrochloride] came in with an IC50 of 14 nM.
With `O=c1cc(C2CCNCC2)n2ncc(-c3noc(Cc4cccc(Cl)c4)n3)c2[nH]1` [Example 217, 3-[5-(3-chlorobenzyl)-1,2,4-oxadiazol-3-yl]-7-(piperidin-4-yl)pyrazolo[1,5-a]pyrimidin-5(4H)-one hydrochloride], the 50% inhibitory concentration (IC50) was found to be 36 nM.
With `Cc1nn2c(C3CCNCC3)cc(=O)[nH]c2c1-c1nc(Cc2ccc(F)cc2)no1` [Example 299, 3-[3-(4-fluorobenzyl)-1,2,4-oxadiazol-5-yl]-2-methyl-7-(piperidin-4-yl)pyrazolo[1,5-a]pyrimidin-5(4H)-one hydrochloride], inhibition was half-maximal at 25 nM (IC50).

Staying with this assay, now noted: human citrated platelet-poor plasma 5%, fibrinogen 3 μM, CaCl2 10 mM, tPA 0.2 nM, 37° C., OD at 405 nm; acetate.
Consider `Cc1ccccc1-c1csc(-c2cnn3c(C4CCNCC4)cc(=O)[nH]c23)n1` [Example 448, 3-[4-(2-methylphenyl)-1,3-thiazol-2-yl]-7-(piperidin-4-yl)pyrazolo[1,5-a]pyrimidin-5(4H)-one acetate], for which the IC50 was determined as 30 nM.
